In brackets after ≈: the same amount, converted by molar mass. Activity calls are given as the source filed them. The calls are words filed in the database; no cut-off is given here.
Experiments:
Staphylococcus aureus [1] = test: Antibacterial activity against methicillin-resistant Staphylococcus aureus after overnight incubation by micro broth dilution analysis; type: functional
[2] = system: Staphylococcus epidermidis; test: Antibacterial activity against methicillin-resistant Staphylococcus epidermidis after overnight incubation by micro broth dilution analysis; type: functional
[3] = system: Staphylococcus haemolyticus; test: Antibacterial activity against methicillin-resistant Staphylococcus haemolyticus after overnight incubation by micro broth dilution analysis; type: functional
Staphylococcus aureus [4] = test: Antibacterial activity against methicillin-resistant Staphylococcus aureus assessed as zone of inhibition at 50 ug/mL after 24 hrs by agar disc diffusion method; type: functional; settings: read-out: IZ
Staphylococcus aureus [5] = test: Antibacterial activity against methicillin-resistant Staphylococcus aureus assessed as zone of inhibition at 200 ng/mL after 24 hrs by agar disc diffusion method; type: functional; settings: read-out: IZ
Staphylococcus aureus [6] = test: Antibacterial activity against methicillin-resistant Staphylococcus aureus assessed as zone of inhibition at 400 ng/mL after 24 hrs by agar disc diffusion method; type: functional; settings: read-out: IZ
Staphylococcus aureus [7] = test: Antibacterial activity against methicillin-resistant Staphylococcus aureus assessed as zone of inhibition at 800 ng/mL after 24 hrs by agar disc diffusion method; type: functional; settings: read-out: IZ
[8] = system: Staphylococcus epidermidis; test: Antibacterial activity against methicillin-resistant Staphylococcus epidermidis assessed as zone of inhibition at 20 ug/mL after 24 hrs by agar disc diffusion method; type: functional; settings: read-out: IZ
[9] = system: Staphylococcus haemolyticus; test: Antibacterial activity against methicillin-resistant Staphylococcus haemolyticus assessed as zone of inhibition at 50 ug/mL after 24 hrs by agar disc diffusion method; type: functional; settings: read-out: IZ
[10] = system: Staphylococcus haemolyticus; test: Antibacterial activity against methicillin-resistant Staphylococcus haemolyticus assessed as zone of inhibition at 200 ng/mL after 24 hrs by agar disc diffusion method; type: functional; settings: read-out: IZ
[11] = system: Staphylococcus haemolyticus; test: Antibacterial activity against methicillin-resistant Staphylococcus haemolyticus assessed as zone of inhibition at 400 ng/mL after 24 hrs by agar disc diffusion method; type: functional; settings: read-out: IZ
[12] = system: Staphylococcus haemolyticus; test: Antibacterial activity against methicillin-resistant Staphylococcus haemolyticus assessed as zone of inhibition at 800 ng/mL after 24 hrs by agar disc diffusion method; type: functional; settings: read-out: IZ
Staphylococcus aureus [13] = test: Induction of cellular content release in methicillin-resistant Staphylococcus aureus assessed as DNA content by measuring optical density at 260 nm at MIC after 240 mins by UV-visible spectrophotometric analysis; type: functional
Staphylococcus aureus [14] = test: Antibiofilm activity against methicillin-resistant Staphylococcus aureus at 2 times MIC after 24 hrs by crystal violet staining-based UV-visible spectrophotometric analysis; type: functional, organism-based
[15] = system: Staphylococcus epidermidis; test: Antibacterial activity against methicillin-resistant Staphylococcus epidermidis assessed as zone of inhibition at 200 ng/mL after 24 hrs by agar disc diffusion method; type: functional; settings: read-out: IZ
[16] = system: Staphylococcus epidermidis; test: Antibacterial activity against methicillin-resistant Staphylococcus epidermidis assessed as zone of inhibition at 400 ng/mL after 24 hrs by agar disc diffusion method; type: functional; settings: read-out: IZ
[17] = system: Staphylococcus epidermidis; test: Antibacterial activity against methicillin-resistant Staphylococcus epidermidis assessed as zone of inhibition at 800 ng/mL after 24 hrs by agar disc diffusion method; type: functional; settings: read-out: IZ
Staphylococcus aureus [18] = test: Antibiofilm activity against methicillin-resistant Staphylococcus aureus planktonic biofilm assessed as optical density at 492 nm at MIC after 24 hrs by crystal violet staining-based UV-visible spectrophotometric analysis; type: functional

Compound | MIC99 (Staphylococcus aureus [1]) | MIC99 [2] | MIC99 [3] | zone of inhibition at 50 µg/mL (Staphylococcus aureus [4]) | zone of inhibition at 0.2 µg/mL (Staphylococcus aureus [5]) | zone of inhibition at 0.4 µg/mL (Staphylococcus aureus [6]) | zone of inhibition at 0.8 µg/mL (Staphylococcus aureus [7]) | zone of inhibition at 20 µg/mL [8] | zone of inhibition at 50 µg/mL [9] | zone of inhibition at 0.2 µg/mL [10] | zone of inhibition at 0.4 µg/mL [11] | zone of inhibition at 0.8 µg/mL [12] | OD (Staphylococcus aureus [13]) | Activity (Staphylococcus aureus [14]) | zone of inhibition at 0.2 µg/mL [15] | zone of inhibition at 0.4 µg/mL [16] | zone of inhibition at 0.8 µg/mL [17] | OD (Staphylococcus aureus [18])
O=Cc1cccc(/C=C/S(=O)(=O)F)c1 | 17.2 µg/mL (≈ 80.2 µM) | 41.1 µg/mL (≈ 192 µM) | 0.828 µg/mL (≈ 3.87 µM) | 10.3 mm | 3.1 mm | 3.5 mm | 4.2 mm | 6.5 mm | 8.2 mm | 2.2 mm | 5.1 mm | 6.1 mm | – | – | – | – | – | –
O=[N+]([O-])c1ccc(/C=C/S(=O)(=O)F)cc1 | 0.823 µg/mL (≈ 3.56 µM) | 58.2 µg/mL (≈ 252 µM) | 0.833 µg/mL (≈ 3.6 µM) | 8.12 mm | 5.1 mm | 7.2 mm | 10.1 mm | 6.2 mm | 7.3 mm | 4.1 mm | 5.2 mm | 7.4 mm | 1.35 | Active | – | – | – | –
Cc1cc(/C=C/S(=O)(=O)F)ccc1Br | 0.81 µg/mL (≈ 2.9 µM) | 50 µg/mL (≈ 179 µM) | 57.2 µg/mL (≈ 205 µM) | 12 mm | 6.2 mm | 8.2 mm | 10.4 mm | 6.3 mm | 5.3 mm | – | – | – | 1.61 | Active | – | – | – | –
O=S(=O)(F)/C=C/c1cccc(Br)c1 | 0.813 µg/mL (≈ 3.07 µM) | 58.2 µg/mL (≈ 219 µM) | 16.1 µg/mL (≈ 60.8 µM) | 17.1 mm | 5.1 mm | 10.1 mm | 12 mm | 4.5 mm | 8.5 mm | 32 mm | 42 mm | 52 mm | – | – | – | – | – | –
O=S(=O)(F)/C=C/c1cccc2ccccc12 | 0.82 µg/mL (≈ 3.47 µM) | 47 µg/mL (≈ 199 µM) | 51 µg/mL (≈ 216 µM) | 9.2 mm | 4.2 mm | 6.2 mm | 9.2 mm | 5.5 mm | 4.1 mm | – | – | – | 1.48 | Active | – | – | – | –
COc1ccccc1/C=C/S(=O)(=O)F | 69.1 µg/mL (≈ 319 µM) | 0.829 µg/mL (≈ 3.83 µM) | 0.837 µg/mL (≈ 3.87 µM) | 5.2 mm | – | – | – | 7.2 mm | 12.2 mm | 3.2 mm | 5.2 mm | 7.1 mm | – | Active | 5.1 mm | 7.2 mm | 8.4 mm | –
Cc1cc(C)cc(/C=C/S(=O)(=O)F)c1 | 40.2 µg/mL (≈ 188 µM) | 0.818 µg/mL (≈ 3.82 µM) | 60.2 µg/mL (≈ 281 µM) | 7.2 mm | – | – | – | 9.2 mm | 3.5 mm | – | – | – | 1.37 | Active | 3.3 mm | 5.2 mm | 9.8 mm | –
O=S(=O)(F)/C=C/c1cc(C(F)(F)F)cc(C(F)(F)F)c1 | 0.814 µg/mL (≈ 2.53 µM) | 60.2 µg/mL (≈ 187 µM) | 18.1 µg/mL (≈ 56.3 µM) | 14.4 mm | 6.2 mm | 7.1 mm | 10.3 mm | 6.5 mm | 7.1 mm | 0 mm | 3.1 mm | 4.2 mm | – | – | – | – | – | –
O=C(O)c1cn(C2CC2)c2cc(N3CCNCC3)c(F)cc2c1=O [CIPROFLOXACIN] | – | – | – | – | – | – | – | – | – | – | – | – | – | Active | – | – | – | 0.915
O=S(=O)(F)/C=C/c1ccccc1 | 18.2 µg/mL (≈ 97.5 µM) | 15.2 µg/mL (≈ 81.4 µM) | 20.1 µg/mL (≈ 108 µM) | 8.2 mm | 3.5 mm | 4.2 mm | 4.5 mm | 11.2 mm | 7.2 mm | 0 mm | 1.2 mm | 3.2 mm | – | – | 0.1 mm | 4.2 mm | 5.5 mm | –

Source: ChEMBL document CHEMBL4382233, “Discovery of novel arylethenesulfonyl fluorides as potential candidates against methicillin-resistant of Staphylococcus aureus (MRSA) for overcoming multidrug resistance of bacterial infections” (2019)
